Test system: rats having their sciatic nerves crushed
Test: Curing effect on rats with crushed sciatic nerve (distance between toes, weight of musculi soleus)
Assay type: in vivo, rat
Settings: 0.5 mg/kg, ip, average ± S.D.
Method: The curing effect of the compound (I) of the invention on the rats having their sciatic nerves crushed, which were used as models caused by peripheral nervous disturbances, was assessed by examining (l) the change in action of the crushed hind leg and (2) the change in weight of the muscle as indicators for the modification of peripheral nerve and for the recovery course of the disturbance.
In the experiment, seven male Wister family rats (6 weeks age) were used per a group. The sciatic nerve of each rat was crushed in accordance with the method of Yamazu et al. (see Kiyomi Yamazu, Takenori Kaneko, Akifumi Kitahara and Isao Ohkawa, Journal of Japanese Pharmacological Society, 72, 259 - -268 (l976)) and in accordance with the method of Hasegawa et al. (see Kazuo Hasegawa, Naoji Mikuni and Yutaka Sakai, Journal of Japanese Pharmacological Society, 74, 72l - 734 (l978)). Specifically, under anesthesia with Pentobarbital (40 mg/kg, i.p.), the left sciatic nerve was exposed at the femur and the site 5 mm centrally from the branch portion between the N. tibialis and the N. suralis was crushed using a modified artery klemme having a width of 2 mm and gap of 0.l mm. Rats subjected to the operation were randomly dispensed to form the groups subjected to test.
The compound (I) of the invention was intraperitoneally administered one time per day from the day on which the nerve was crushed to the 22nd day. The control groups included a group administered with Mecobalamin (produced by Gedeon Richter Ltd.), a group administered with a 20% aqueous solution of propylene glycol (hereinafter referred to as 20% PG) which was used to dissolve the compound (I) of the invention, and a group administered with a 0.9% aqueous saline solution. The predetermined measurements were conducted with the lapse of time after the crushing operation (at the first, fourth, seventh, tenth, l4th, l5th, l7th, l9th 2lst and 28th days).
The distance between the toes was measured, since this is a good indicator showing the modification and recovery of the function of the nerve and the change thereof could conveniently measured with the lapse of time.
The measurement was conducted in accordance with the method of Hasegawa, (Hasegawa, K., Experientia, 34, 750 - 75l (l978)) by measuring the distance from the first toe to the fifth toe of the hind leg.
The ratio of the distance at the crushed side to the distance at the normal side was calculated as a percentage (%), the average values and the standard deviations (S.D.) being shown in Table 5.
It is known that removal of or disturbance in a certain nerve causes atrophy of the muscle controlled by the nerve, and the atrophy is gradually recovered by the recontrol by the nerve. For this reason, the quantitative change in weight of the muscle was selected as an indicator. At 28th day after the operation, the muscli soleus of both hind legs were extracted under anesthesia with Pentobarbital, and the weights of the muscles were weighed. The weight ratio of the muscli soleus at the crushed side to the muscli soleus at the normal side was calculated and represented by percentage (%).

C/C1=C2/[N-][C@H]([C@H](CC(N)=O)[C@@]2(C)CCC(=O)NC[C@@H](C)OP(=O)([O-])O[C@H]2[C@@H](O)[C@@H](n3cnc4cc(C)c(C)cc43)O[C@@H]2CO)[C@]2(C)N=C(/C(C)=C3N=C(/C=C4N=C1[C@@H](CCC(N)=O)C\4(C)C)[C@@H](CCC(N)=O)[C@]\3(C)CC(N)=O)[C@@H](CCC(N)=O)[C@]2(C)CC(N)=O.[CH3-].[Co+3] [Mecobalamine]
Recovery Rate (%) in Distance between the Fingers (17th Day): 77.0 ± 10.7%
Recovery Rate (%) in Distance between the Fingers (19th Day): 88.8 ± 5.1 %
Recovery Rate (%) in Weight of the Muscle (28th Day): 82.7 ± 5.1%

Source: patent EP0260606A2, “Medicament for curing neurotic disturbance or disorder comprising sialocylglycerolipid” (MECT CORPORATION, priority 1986, dated 1988)
